In brackets after ≈: the same amount, converted by molar mass. Where two headings read alike, the source gives them in different places.
Tests used:
Type in all cases: cell-based
[1] = system: Staphylococcus aureus DSM1104; experiment: Anti-biofilm activity, microtiter dish biofilm formation assay; conditions: S. aureus DSM1104 (ATCC25923), lowest concentration preventing biofilm formation by at least 50%, 24 h, NA = No activity
Protocol: (§1) The isolated compounds were also tested for their ability to interfere in the biofilm formation of Staphylococcus aureus DSM1104 and Pseudomonas aeruginosa PA14 [51]. The biofilm inhibition assay was performed in 96-well microtiter plates using the microtiter dish biofilm formation assay described by O’Toole, with minor modifications, as outlined in our recent publications. The antibiofilm activity is expressed as MIC values, which is defined as the lowest concentration of substance that prevents biofilm formation of a target microorganism by at least 50%. […]
(§2) Anti-biofilm activity assay
(§3) The determination of the ability of isolated compounds to prevent biofilm formation of S. aureus DSM1104 (ATCC25923) and P. aeruginosa PA148 was performed using the microtiter dish biofilm formation assay described by O’Toole9 with minor modification provided in our recent publications 1, 6, 10–14. The biofilm forming strains were enriched overnight in CASO medium with and without 4% glucose for S. aureus and P. aeruginosa , respectively. After incubation at 37 °C under shaking condition, the overnight cultures were adjusted to equal the turbidity of 0.5 McFarland standard using the assay medium. The assay was carried out in 96 -well tissue cultured -treated microplates (TPP®, Germany) for S. aureus and non-treated plates (Falcon®MicroTestTM, USA) for P. aeruginosa , in which 10 μ L of each compound (0.5 mg/m L) in six replicates were mixed together with 140 μ L of bacterial suspension. Methanol and CASO medium with and without 4% glucose were used as negative controls and tetracycline (100 μg/m L) as positive control. Plates were covered with a sterile adhesive porous paper (Kisker Biotech GmbH, Steinfurt, Germany) and incubated at 37 °C for 24 h.
(§4) After incubation, ba cterial biofilms were stained with 0.1% crystal violet solution (Sigma -Aldrich) following the protocol of O’Toole .9 Then, the biofilm was subsequently quantified using a microplate reader at 550 nm. 12 In the current study, the antibiofilm activity was expr essed as MIC value which was defined as the lowest concentration of substance that prevents the biofilm formation of a target microorganism by at least 50%. […]

[2] = system: Pseudomonas aeruginosa PA14; experiment: as above; conditions: lowest concentration preventing biofilm formation by at least 50%, 24 h, NA = No activity
Protocol: as §1, §2, §3, §4

Bacillus subtilis DSM10 = experiment: Antimicrobial activity, broth microdilution MIC; conditions: for MIC: read-out: Antimicrobial activity (MIC) BS
Protocol: To evaluate the biological effects of compounds 1–6, various assays were carried out. The antimicrobial activity of the isolated compounds against Bacillus subtilis DSM10, Escherichia coli DSM498, Candida tenuis MUCL29892, and Mucor plumbeus MUCL49355 was determined as described by Kuephadungphan and co-workers. The nematicidal activity against Caenorhabditis elegans was investigated using a microtiter plate assay according to Helaly and co-workers, while the cytotoxicity was tested against murine fibroblast (L929) and human HeLa (KB3.1) cell lines according to Chepkirui and co-workers.
Biological activity screening of compounds 1–6
Antimicrobial activity assay
The minimum inhibitory concentration (MIC) of compounds 1–6 was determined using the broth microdilution method according to Kuephadungphan et al.4 against B. subtilis DSM10, E. coli DSM498, C. tenuis MUCL29892 and M. plumbeus MUCL49355. Stock suspension of each bacterium and yeast (100 μL) was transferred to 100 mL of EBS medium and YM medium, respectively.
Suspensions of B. subtilis and C. tenuis were incubated on a rotary shaker at 30 °C for 18–24 h while E. coli was grown at 37 °C for 24 h. After incubation, the suspension was adjusted to a concentration of 6.7 × 10^5 cells/mL using a hemacytometer. The spore suspension of M. plumbeus was prepared at a concentration of 6.7 × 10^5 conidia/mL using YM medium. The determination of MIC was performed in a 96-well microtiter plate. The compounds dissolved in methanol at a concentration of 4.5 mg/mL (20 μL) were transferred to the first row of the plate. Standard antibiotics including ciprofloxacin (bacteria) and nystatin (yeast and fungus), and methanol were used as positive and negative controls, respectively. Inoculum suspension (280 μL) was added to the first row containing compounds and 150 μL were added to the rest. The solutions were then serially 2-fold diluted to 8 concentrations ranging from 2.34–300 μg/mL. Plates were incubated at 30 °C on a microplate-vibrating shaker for 24 h for bacteria and 48 h for yeast and filamentous fungus. […]
The assay was kindly conducted by Wera Collisi, Department of Microbial Drugs, Helmholtz Centre of Infection Research, Germany. The tested cell lines were cultured in EBM -2 (Lonza) sup plemented with 10% fetal bovine serum (Gibco) under 10% CO2 at 37 °C. A 60 µL of serial dilutions from an initial stock (1 mg/mL) of the test compounds in MeOH was added to 120 µL aliquots of a cell suspension (50,000 cells/mL) in 96-well microplates.
After incubation for five days, 20 µL of MTT in phosphate buffered saline (PBS) were added to give a final concentration of 0.5 mg/mL. The plates were further incubated for two hours. The precipitate

[3] = Bacillus subtilis DSM10, 24 h, range 2.34–300 μg/mL, NA = No activity

| SMILES | Anti-biofilm activity (MIC) SA [1] [µg/mL] | Anti-biofilm activity (MIC) SA ([1]; listed as 1) | Anti-biofilm activity (MIC) PA [2] | Antimicrobial activity (MIC) BS (Bacillus subtilis DSM10; [3]) [µg/mL] | MIC (Bacillus subtilis DSM10; Bacillus subtilis, DSM10, 24 h) [µg/mL] | Anti-biofilm activity (MIC) SA ([1]; listed as 2) | Anti-biofilm activity (MIC) SA ([1]; listed as pigmentosin B (2)) [µg/mL] | MIC (Bacillus subtilis DSM10; [3]) [µg/mL] |
| --- | --- | --- | --- | --- | --- | --- | --- | --- |
| COc1cc(O)c2c(O)c3c(cc2c1-c1c(OC)cc(O)c2c(O)c4c(cc12)CC(C)OC4=O)CC(C)OC3=O (centres unmarked) [Pigmentosin A (1), pigmentosin A] | 1.9 | active | nor antibiofilm activity | 12.5 | 12.5 (≈ 22.9 µM) | – | – | – |
| COc1cc(O)c2c(O)c3c(cc2c1-c1c(OC)cc(O)c2c(O)c4c(cc12)CC(CC(C)O)OC4=O)CC(C)OC3=O (centres unmarked) [Pigmentosin B (2), pigmentosin B] | 15.6 | – | nor antibiofilm activity | 100 | – | active | 15.6 | 100 (≈ 169 µM) |

— paper PMC6941404, “Pigmentosins from Gibellula sp. as antibiofilm agents and a new glycosylated asperfuran from Cordyceps javanica” (Beilstein Journal of Organic Chemistry, 2019)
